Data: patent publication US5945404A, “21-Substituted steroid compound” (priority 1993, dated 1999)
Read-outs that look alike come from different tables or passages of the source.

Columns and labels:
[1] = test system: croton oil-induced ear edema; assay: Inhibitory Effects on Croton oil-induced Ear Lobe Edema; assay type: in vivo, male ddY mice; settings: Table 5, ointment 20 mg, mouse ear lobe
Method: (§1) Ointment to be tested was prepared usign white soft paraffin as the base and containing dexamethasone at 0.1% concentration.
Groups of 10 male ddY mice each weighing about 25 g were used. Ointment to be tested (20 mg) was rubbed in the right-side ear lobe, and, 30 min later, a drop of 4 % croton oil dissolved in either was applied to it. Thirty minute after that treatment, mice were sacrificed. Ear lobes on both sides were punched out in the size of 5-mm diameter, and weighed. Results were expressed by calculating the per cent of weight change of the right edema ear as compared with that of the untreated left ear, and compared with that of the control.

granuloma = assay: Inhibitory Effects on Granuloma Growth (Paper Disk Method); assay type: in vivo, male Sprague-Dawley rats; settings: ointment 0.1%, 50 mg once a day, 7 days; for change in vivo at 0.1 %, 50 mg: Rattus norvegicus, topical, 168 h
Method: as §1
Groups of 5 male Sprague-Dawley rats each weighing 150-170 g were used. Under ether anesthesia, the dorsum of animals was closely clipped, and medianly incised. After each one pre-weighed paper disk (8-mm diameter, 1-mm thick, weighing about 30 mg; Toyo-Roshi filter paper) was inserted subcutaneously into both sides of the dorsal incision, the incision was sutured. In order to prevent bacterial infection, penicillin G potassium salt (2,000 units) per rat was intramascularly injected after the surgery. Base or ointment to be tested (50 mg each) was rubbed carefully into the skin over the paper disk inserted site, for 30 seconds once a day for the duration of 7 days. Rats were slipped plastic cangs on to prevent them from licking the drug applied sites. On the 8th day of the test, rats were sacrificed under ether anesthesia, and granulomas were carefully excised. Granulomas were dried at 40° C. for 24 h, and their dry weights were recorded.
Inhibitory effects of dexamethasone derivatives on the weight increase of granuloma of experimental animals as compared with those of control animals are shown as per cent of inhibition ov er the control in Table 1. Figures wihth asterisks in the table indicate signfiicant difference. The same will be applied to the following other tables.

[2] = Effects of 7-day Ointment Rubbing on Organ Weights; assay type: in vivo, male Sprague-Dawley rats; settings: Table 7, 7-day rubbing, 100 mg ointment once daily; for Leukocyte count: normal animal 0.0
Method: as §1
Groups of 5 male Sprague-Dawley rats each weighing 150-170 g were used. Under ether anesthesia, the dorsum of animals were closely clipped, and test drug (100 mg) was carefully rubbed in the clipped dorsal area for 30 seconds. Rats were slipped on plastic cang to prevent them from licking the drug-applied area. After the drug rubbing once daily for 7 days, on the 8th day rats were anesthetized with ether. Blood samples were collected, and thymus, spleen, and adrenal were excised and measured their wet weights. Furthermore, leukocyte number was counted with the blood samples collected. Results were expressed as the per cent of change of body weight on the 8th day as compared with that on the 1st day of rubbing. Similarly, the per cent of change in weights of thymus, spleen and adrenal on the 8th day as compared with that of the control animlas were shown.

[3] = test system: croton oil-induced granuloma; assay: Croton Oil-induced Granuloma (granuloma pouch); assay type: in vivo, male Sprague-Dawley rats; settings: Rattus norvegicus, 168 h, 7 days; for inhibition in vivo at 0.01 mg: 0.01 mg/rat; for inhibition in vivo at 0.1 mg: 0.1 mg/rat; for inhibition in vivo at 1 mg: 1.0 mg/rat
Method: Groups of 5 male Sprague-Dawley rats each weighing 160-180 g were used. Under ether anesthesia, the dorsum of animals was closely clipped, and air sac was formed by injecting air (20 ml) subcutaneously. Next day cotton seed oil containing 1% croton oil was injected into the air sac. Drugs to be tested were suspended in the cotton seed oil containing 1% croton oil, and administered. After 7 days, the blood was taken from the animal under ether anesthesia. Then, the granuloma pouch fluid (exudate) was collected, and the fluid volume was measured. The pouch wall formed around granuloma and thymus were also excised and weighed.

[4] = read-out: Weight of granuloma, per cent of change of the controls, rat, paper disk
[5] = read-out: Effects on granuloma weight, per cent of inhibition over the control
[6] = read-out: Effects on pouch fluid (exudate) volume, per cent of inhibition over the control

SMILES | Percent of inhibition of ear edema [1] | Weight of granuloma, per cent of change of the controls (granuloma; rat, paper disk) | Adrenal weight, per cent of change vs control animals [2] | Body weight, per cent of change on the 8th day vs 1st day [2] | Spleen weight, per cent of change vs control animals [2] | Thymus weight, per cent of change vs control animals [2] | Leukocyte count [2] | change in vivo at 0.1 %, 50 mg (granuloma; [4]) | other results
CC1OC(OCC(=O)C2(O)C(C)CC3C4CCC5=CC(=O)C=CC5(C)C4(F)C(O)CC32C)C(O)C(O)C1O (stereo not drawn) [Compound 75β, β-fucosyldexamethasone] | 22.0 ± 4.7% | -10.0 ± 8.8 per cent | – | – | – | – | – | – | –
CC(=O)N[C@H]1C(OCC(=O)[C@@]2(O)[C@H](C)C[C@H]3[C@@H]4CCC5=CC(=O)C=C[C@]5(C)[C@@]4(F)[C@@H](O)C[C@@]32C)O[C@H](CO)[C@H](O)[C@@H]1O (some centres unmarked) [Compound 44', N-acetylgalactosaminyldexamethasone] | – | – | – | – | – | – | – | – | Percent of inhibition of ear edema ([1]; listed as 44'): 7.9 ± 7.2%; Weight of granuloma, per cent of change of the controls (granuloma; rat, paper disk, listed as 44'): 3.3 ± 4.7 per cent
C[C@@H]1C[C@H]2[C@@H]3CCC4=CC(=O)C=C[C@]4(C)[C@@]3(F)[C@@H](O)C[C@]2(C)[C@@]1(O)C(=O)CO[C@H]1O[C@H](CO)[C@H](O)[C@H](O)[C@H]1O [Compound 15α, galactosyldexamethasone] | – | – | -48.3 ± 2.9 per cent | 8.3 ± 1.0 per cent | -35.7 ± 2.3 per cent | -82.2 ± 3.3 per cent | -22.6 ± 7.4 | -39.5 ± 1.8% | –
CC(=O)OC1C(C)OC(OCC(=O)C2(O)C(C)CC3C4CCC5=CC(=O)C=CC5(C)C4(F)C(O)CC32C)C(OC(C)=O)C1OC(C)=O (stereo not drawn) [Compound 74β, fucosyldexamethasone] | 14.1 ± 4.5% | 1.6 ± 16.2 per cent | – | – | – | – | – | – | –
CC(=O)N[C@H]1C(OCC(=O)[C@@]2(O)[C@H](C)C[C@H]3[C@@H]4CCC5=CC(=O)C=C[C@]5(C)[C@@]4(F)[C@@H](O)C[C@@]32C)O[C@H](CO)[C@H](O)[C@@H]1O (some centres unmarked) [Compound 45', N-acetylgalactosaminyldexamethasone] | – | – | – | – | – | – | – | – | Percent of inhibition of ear edema ([1]; listed as 45'): 21.0 ± 6.4%; Weight of granuloma, per cent of change of the controls (granuloma; rat, paper disk, listed as 45'): -11.8 ± 10.1 per cent
C[C@@H]1C[C@H]2[C@@H]3CCC4=CC(=O)C=C[C@]4(C)[C@@]3(F)[C@@H](O)C[C@]2(C)[C@@]1(O)C(=O)CO[C@@H]1O[C@H](CO)[C@H](O)[C@H](O)[C@H]1O [Compound 15β, galactosyldexamethasone] | – | – | -47.1 ± 1.9 per cent | 4.6 ± 0.9 per cent | -43.2 ± 2.1 per cent | -86.0 ± 1.4 per cent | -37.0 ± 6.9 | -41 ± 2.6% | –
C[C@@H]1C[C@H]2[C@@H]3CCC4=CC(=O)C=C[C@]4(C)[C@@]3(F)[C@@H](O)C[C@]2(C)[C@@]1(O)C(=O)CO[C@@H]1O[C@H](CO)[C@@H](O)[C@H](O)[C@H]1O [Compound 5β, glucosyldexamethasone] | – | – | -49.6 ± 3.2 per cent | 0.7 ± 1.4 per cent | -56.0 ± 1.6 per cent | -85.7 ± 2.6 per cent | -46.6 ± 8.2 | -47.4 ± 2.9% | –
Cc1ccc(C(=O)OC[C@H]2O[C@@H](OCC(=O)[C@@]3(O)CC[C@H]4[C@@H]5C[C@H](F)C6=CC(=O)C=C[C@]6(C)[C@@]5(F)[C@@H](O)C[C@@]43C)[C@H](OC(=O)c3ccc(C)cc3)[C@@H](OC(=O)c3ccc(C)cc3)[C@@H]2OC(=O)c2ccc(C)cc2)cc1 [Compound 105β, glucosyldiflupredonate (p-toluoyl derivative)] | – | – | – | – | – | – | – | – | inhibition in vivo at 0.01 mg [3, 5]: -5.9 ± 10.9%; inhibition in vivo at 0.01 mg [3, 6]: -8.1 ± 9.4%; inhibition in vivo at 0.1 mg [3, 5]: 22.1 ± 3.7%; inhibition in vivo at 0.1 mg [3, 6]: 24.8 ± 8.8%; inhibition in vivo at 1 mg [3, 5]: 53 ± 6.2%; inhibition in vivo at 1 mg [3, 6]: 76.4 ± 4.3%; change in vivo at 0.1 %, 50 mg (granuloma; rat, paper disk, read-out: Weight of granuloma, per cent of change of the controls): -1.2 ± 5.7%
C[C@@H]1C[C@H]2[C@@H]3CCC4=CC(=O)C=C[C@]4(C)[C@@]3(F)[C@@H](O)C[C@]2(C)[C@@]1(O)C(=O)CO[C@H]1O[C@H](CO)[C@@H](O)[C@H](O)[C@@H]1O [Compound 25α, mannosyldexamethasone] | – | – | -24.4 ± 3.4 per cent | 16.1 ± 1.7 per cent | -18.2 ± 2.2 per cent | -32.6 ± 7.4 per cent | -0.7 ± 9.0 | -18 ± 4.8% | –
CC(=O)OC[C@H]1O[C@H](OCC(=O)[C@@]2(O)[C@H](C)C[C@H]3[C@@H]4CCC5=CC(=O)C=C[C@]5(C)[C@@]4(F)[C@@H](O)C[C@@]32C)[C@@H](OC(C)=O)[C@@H](OC(C)=O)[C@@H]1OC(C)=O [Compound 29, mannosyldexamethasone (per Ac derivative)] | 22.1 ± 4.7% | -35.7 ± 5.6 per cent | – | – | – | – | – | – | –
